According to patent publication US11339161B2, “Triazolo pyridines as modulators of gamma-secretase” (Boehringer Ingelheim International GmbH, priority 2017, dated 2022):
Like-named read-outs stand apart in the source and are kept apart here.

What was measured:
[1] = target: CSF1R (FMS) (Homo sapiens, UniProt P07333); test: Z'-LYTE SelectScreen biochemical kinase assay CSF1R (FMS)
Source text: (§1) Thermo Fisher Scientific SelectScreen™ Biochemical Kinase Profiling Service Z′-LYTE™ Screening Protocol and Assay Conditions Assay Theory
(§2) The […] biochemical assay employs a fluorescence-based, coupled-enzyme format and is based on the differential sensitivity of phosphorylated and non-phosphorylated peptides to proteolytic cleavage. The peptide substrate is labeled with two fluorophores—one at each end—that make up a FRET pair. In the primary reaction, the kinase transfers the gamma-phosphate of ATP to a single tyrosine, serine or threonine residue in a synthetic FRET-peptide. In the secondary reaction, a site-specific protease recognizes and cleaves non-phosphorylated FRET-peptides. Phosphorylation of FRET-peptides suppresses cleavage by the Development Reagent. Cleavage disrupts FRET between the donor (i.e., coumarin) and acceptor (i.e., fluorescein) fluorophores on the FRET-peptide, whereas uncleaved, phosphorylated FRET-peptides maintain FRET. A ratiometric method, which calculates the ratio (Emission Ratio=Coumarin emission (445 nm)/Fluorescein emission (520 nm)) of donor emission to acceptor emission after excitation of the donor fluorophore at 400 nm, is used to quantitate reaction progress, as shown in the equation below. A significant benefit of this ratiometric method for quantitating reaction progress is the elimination of well-to-well variations in FRET-peptide concentration and signal intensities. As a result, the assay yields very high Z′-factor values (>0.7) at a low percent phosphorylation. Both cleaved and uncleaved FRET-peptides contribute to the fluorescence signals and therefore to the Emission Ratio. The extent of phosphorylation of the FRET-peptide can be calculated from the Emission Ratio. The Emission Ratio will remain low if the FRET-peptide is phosphorylated (i.e., no kinase inhibition) and will be high if the FRET-peptide is non-phosphorylated (i.e., kinase inhibition).
(§3) The Test Compounds are screened in 1% DMSO (final) in the well. For 10 point titrations, 3-fold serial dilutions are conducted from the starting concentration of the customer's choosing.
(§4) All Peptide/Kinase Mixtures are diluted to a 2× working concentration in the appropriate Kinase Buffer (see section Kinase Specific Assay Conditions for a complete description).
(§5) All ATP Solutions are diluted to a 4× working concentration in Kinase Buffer (50 mM HEPES pH 7.5, 0.01% BRIJ-35, 10 mM MgCl2, 1 mM EGTA). ATP Km apparent is previously determined using a Z″-LYTE assay.
(§6) The Development Reagent is diluted in Development Buffer (see section Kinase-Specific Assay Conditions—Direct and Cascade for a complete description).
(§7) Bar-coded Corning, low volume NBS, black 384-well plate (Corning Cat. #4514) • 1. 100 nL—100× Test Compound in 100% DMSO • 2. 2.4 μL—Kinase buffer • 3. 5 μL—2× Peptide/Kinase Mixture • 4. 2.5 μL—4×ATP Solution • 5. 30—second plate shake • 6. 60—minute Kinase Reaction incubation at room temperature • 7. 5 μL—Development Reagent Solution • 8. 30—second plate shake • 9. 60—minute Development Reaction incubation at room temperature • 10. Read on fluorescence plate reader and analyze the data Z′-LYTE Assay Controls
(§8) SelectScreen Kinase Profiling Service uses XLfit from IDBS. The dose response curve is curve fit to model number 205 (sigmoidal dose-response model).
(§9) The 2×CSF1R (FMS)/Tyr 01 mixture is prepared in 50 mM HEPES pH 7.5, 0.01% BRIJ-35, 10 mM MgCl2, 1 mM EGTA. The final 10 μL Kinase Reaction consists of 0.2-40 ng CSF1R (FMS) and 2 μM Tyr 01 in 50 mM HEPES pH 7.5, 0.01% BRIJ-35, 10 mM MgCl2, 1 mM EGTA. After the 1 hour Kinase Reaction incubation, 5 μL of a 1:256 dilution of Development Reagent B is added.

[2] = target: PTK2 (FAK) (Homo sapiens, UniProt Q05397); test: Z'-LYTE SelectScreen biochemical kinase assay PTK2 (FAK)
PTK2 (FAK), sequence (Q05397 whole entry): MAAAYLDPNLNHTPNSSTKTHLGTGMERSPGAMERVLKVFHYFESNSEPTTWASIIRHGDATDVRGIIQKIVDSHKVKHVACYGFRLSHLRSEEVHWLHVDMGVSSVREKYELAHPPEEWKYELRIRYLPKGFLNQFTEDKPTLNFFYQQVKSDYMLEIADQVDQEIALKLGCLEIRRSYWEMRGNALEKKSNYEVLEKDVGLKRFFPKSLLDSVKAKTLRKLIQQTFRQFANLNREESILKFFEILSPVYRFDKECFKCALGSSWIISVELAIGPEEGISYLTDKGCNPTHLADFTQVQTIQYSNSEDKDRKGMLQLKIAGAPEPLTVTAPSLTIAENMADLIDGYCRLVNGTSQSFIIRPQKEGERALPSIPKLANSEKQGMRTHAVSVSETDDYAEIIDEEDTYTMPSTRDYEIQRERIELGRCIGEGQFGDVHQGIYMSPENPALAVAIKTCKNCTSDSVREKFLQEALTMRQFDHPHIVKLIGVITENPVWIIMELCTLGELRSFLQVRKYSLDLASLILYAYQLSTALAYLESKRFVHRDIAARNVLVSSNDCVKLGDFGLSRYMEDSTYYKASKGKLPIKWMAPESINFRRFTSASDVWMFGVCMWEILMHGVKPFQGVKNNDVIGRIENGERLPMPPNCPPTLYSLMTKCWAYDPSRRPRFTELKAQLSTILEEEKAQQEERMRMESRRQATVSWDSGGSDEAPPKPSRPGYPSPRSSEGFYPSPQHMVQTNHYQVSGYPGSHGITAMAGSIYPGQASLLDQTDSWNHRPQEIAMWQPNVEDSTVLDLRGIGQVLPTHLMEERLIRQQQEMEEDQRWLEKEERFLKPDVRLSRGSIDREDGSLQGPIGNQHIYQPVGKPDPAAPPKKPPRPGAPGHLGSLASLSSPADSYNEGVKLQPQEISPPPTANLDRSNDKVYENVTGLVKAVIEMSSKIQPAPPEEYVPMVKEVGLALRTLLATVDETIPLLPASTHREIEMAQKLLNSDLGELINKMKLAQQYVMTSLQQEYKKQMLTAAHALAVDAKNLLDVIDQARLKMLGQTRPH
Source text: as §1, §2, §3, §4, §5, §6, §7, §8
as §9, with “The 2×PTK2 (FAK)/Tyr 07” for “The 2×CSF1R (FMS)/Tyr 01”, “of 12.5-100” for “of 0.2-40”, “ng PTK2 (FAK)” for “ng CSF1R (FMS)”, “Tyr 07” for “Tyr 01”, “a 1:16” for “a 1:256”

[3] = target: PDGFRA (PDGFR alpha) (Homo sapiens, UniProt P16234); test: Z'-LYTE SelectScreen biochemical kinase assay PDGFRA (PDGFR alpha)
PDGFRA (PDGFR alpha), sequence (P16234 24-1089): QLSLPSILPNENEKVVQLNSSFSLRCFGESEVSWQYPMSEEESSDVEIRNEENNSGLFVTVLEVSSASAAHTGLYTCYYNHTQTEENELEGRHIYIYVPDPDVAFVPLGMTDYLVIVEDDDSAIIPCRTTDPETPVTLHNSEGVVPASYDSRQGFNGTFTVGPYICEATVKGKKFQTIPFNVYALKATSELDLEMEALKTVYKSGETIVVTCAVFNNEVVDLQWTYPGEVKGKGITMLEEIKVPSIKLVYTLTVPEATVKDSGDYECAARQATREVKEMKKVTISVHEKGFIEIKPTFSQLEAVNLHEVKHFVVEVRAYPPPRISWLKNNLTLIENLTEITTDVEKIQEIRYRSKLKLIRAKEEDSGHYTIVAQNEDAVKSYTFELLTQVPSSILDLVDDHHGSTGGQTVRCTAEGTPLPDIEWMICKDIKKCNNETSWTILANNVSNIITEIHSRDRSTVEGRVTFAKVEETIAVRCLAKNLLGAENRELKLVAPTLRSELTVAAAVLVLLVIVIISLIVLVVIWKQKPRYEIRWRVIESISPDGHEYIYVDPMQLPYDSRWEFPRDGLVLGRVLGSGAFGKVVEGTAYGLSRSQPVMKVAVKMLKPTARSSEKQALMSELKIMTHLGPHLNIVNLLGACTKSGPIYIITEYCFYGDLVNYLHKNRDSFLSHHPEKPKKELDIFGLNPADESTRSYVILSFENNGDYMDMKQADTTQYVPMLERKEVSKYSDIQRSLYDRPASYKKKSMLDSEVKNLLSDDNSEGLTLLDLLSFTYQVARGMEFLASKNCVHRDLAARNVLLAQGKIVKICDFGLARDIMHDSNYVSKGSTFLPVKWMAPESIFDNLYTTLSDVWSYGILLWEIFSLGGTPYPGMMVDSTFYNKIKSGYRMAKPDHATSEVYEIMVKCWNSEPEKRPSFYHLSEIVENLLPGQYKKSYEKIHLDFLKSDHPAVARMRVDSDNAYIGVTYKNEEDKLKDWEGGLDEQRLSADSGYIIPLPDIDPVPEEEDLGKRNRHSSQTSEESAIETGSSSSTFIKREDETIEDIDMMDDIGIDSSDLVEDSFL
Source text: as §1, §2, §3, §4, §5, §6, §7, §8
The 2×PDGFRA (PDGFR alpha)/Tyr 04 mixture is prepared in 50 mM HEPES pH 7.5, 0.01% BRIJ-35, 10 mM MgCl2, 4 mM MnCl2, 1 mM EGTA, 2 mM DTT. The final 10 μL Kinase Reaction consists of 1.54-22.6 ng PDGFRA (PDGFR alpha) and 2 μM Tyr 04 in 50 mM HEPES pH 7.5, 0.01% BRIJ-35, 10 mM MgCl2, 2 mM MnCl2, 1 mM EGTA, 1 mM DTT. After the 1 hour Kinase Reaction incubation, 5 μL of a 1:64 dilution of Development Reagent B is added.

[4] = target: LYN B (Homo sapiens, UniProt P07948); test: Z'-LYTE SelectScreen biochemical kinase assay LYN B
LYN B, sequence (P07948 1-491 isoform P07948-2): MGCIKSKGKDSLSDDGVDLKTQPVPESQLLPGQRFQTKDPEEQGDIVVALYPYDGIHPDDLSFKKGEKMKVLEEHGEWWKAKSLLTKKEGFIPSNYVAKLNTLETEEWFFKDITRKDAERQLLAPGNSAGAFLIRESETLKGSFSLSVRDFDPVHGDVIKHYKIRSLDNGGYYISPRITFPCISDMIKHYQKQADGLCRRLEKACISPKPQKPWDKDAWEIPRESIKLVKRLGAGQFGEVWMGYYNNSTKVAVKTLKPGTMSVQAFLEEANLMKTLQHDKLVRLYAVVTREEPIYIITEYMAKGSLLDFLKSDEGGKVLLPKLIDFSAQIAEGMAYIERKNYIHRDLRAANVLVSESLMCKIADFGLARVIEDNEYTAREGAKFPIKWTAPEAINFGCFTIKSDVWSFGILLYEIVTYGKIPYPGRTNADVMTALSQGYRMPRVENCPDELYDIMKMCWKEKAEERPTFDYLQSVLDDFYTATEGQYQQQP
Source text: as §1, §2, §3, §4, §5, §6, §7, §8
The 2×LYN B/Tyr 02 mixture is prepared in 50 mM HEPES pH 7.5, 0.01% BRIJ-35, 10 mM MgCl2, 1 mM EGTA. The final 10 μL Kinase Reaction consists of 0.85-14.8 ng LYN B and 2 μM Tyr 02 in 50 mM HEPES pH 7.5, 0.01% BRIJ-35, 10 mM MgCl2, 1 mM EGTA. After the 1 hour Kinase Reaction incubation, 5 μL of a 1:128 dilution of Development Reagent A is added.

[5] = 10 μmolar compound concentration, ATP at Km app, read-out: CSF1R (FMS) inhibition
[6] = read-out: % Inhibition mean CSF1R (FMS)
[7] = 10 μmolar compound concentration, ATP at Km app, read-out: PTK2 (FAK) inhibition
[8] = read-out: % Inhibition mean PTK2 (FAK)
[9] = 10 μmolar compound concentration, ATP at Km app, read-out: PDGFRA (PDGFR alpha) inhibition
[10] = read-out: % Inhibition mean PDGFRA (PDGFR alpha)
[11] = 10 μmolar compound concentration, ATP at Km app, read-out: LYN B inhibition
[12] = read-out: % Inhibition mean LYN B

CSF1R (FMS), sequence (P07333 20-972): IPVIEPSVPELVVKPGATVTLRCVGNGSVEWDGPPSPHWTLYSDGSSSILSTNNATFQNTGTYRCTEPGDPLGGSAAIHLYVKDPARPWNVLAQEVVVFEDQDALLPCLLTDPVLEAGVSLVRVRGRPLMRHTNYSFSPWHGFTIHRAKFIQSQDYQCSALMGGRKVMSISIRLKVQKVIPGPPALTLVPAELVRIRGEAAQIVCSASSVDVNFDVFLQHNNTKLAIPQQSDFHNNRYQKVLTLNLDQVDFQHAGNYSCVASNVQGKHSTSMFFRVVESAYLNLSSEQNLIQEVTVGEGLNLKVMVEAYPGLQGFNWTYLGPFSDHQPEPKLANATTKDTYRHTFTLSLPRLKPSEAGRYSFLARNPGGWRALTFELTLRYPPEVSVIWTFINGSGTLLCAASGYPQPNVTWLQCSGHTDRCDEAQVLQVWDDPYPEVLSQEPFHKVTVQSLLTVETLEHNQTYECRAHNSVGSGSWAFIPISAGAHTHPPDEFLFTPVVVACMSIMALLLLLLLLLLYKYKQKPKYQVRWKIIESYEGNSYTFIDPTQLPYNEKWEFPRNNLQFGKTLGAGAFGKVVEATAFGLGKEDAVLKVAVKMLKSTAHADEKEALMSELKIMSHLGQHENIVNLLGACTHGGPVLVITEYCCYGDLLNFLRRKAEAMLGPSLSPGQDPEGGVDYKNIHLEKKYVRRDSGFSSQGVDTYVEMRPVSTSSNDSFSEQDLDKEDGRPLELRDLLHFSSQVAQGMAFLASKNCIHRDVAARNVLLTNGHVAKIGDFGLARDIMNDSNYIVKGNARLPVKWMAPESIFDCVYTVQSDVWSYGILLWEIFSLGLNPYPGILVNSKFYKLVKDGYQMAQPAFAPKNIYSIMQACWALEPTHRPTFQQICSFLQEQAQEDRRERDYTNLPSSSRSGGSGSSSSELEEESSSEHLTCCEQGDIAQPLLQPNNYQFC

| inhibition at 10 µM [1, 5] | inhibition at 10 µM [1, 6] | inhibition at 10 µM [2, 7] | inhibition at 10 µM [2, 8] | inhibition at 10 µM [3, 9] | inhibition at 10 µM [3, 10] | inhibition at 10 µM [4, 11] | inhibition at 10 µM [4, 12] | inhibition at 10 µM ([1]; read-out: % Inhibition mean) | inhibition at 10 µM ([2]; read-out: % Inhibition mean) | inhibition at 10 µM ([3]; read-out: % Inhibition mean) | inhibition at 10 µM ([4]; read-out: % Inhibition mean) | Compound |
| --- | --- | --- | --- | --- | --- | --- | --- | --- | --- | --- | --- | --- |
| 40 to 80% | 72% | < 40% | 16% | < 40% | 29% | < 40% | 20% |  |  |  |  | CCn1ncc2c1CCC(Nc1nc3c(-c4ccccc4)cccn3n1)C2 (stereo not shown) [Example 57, (1-Ethyl-4,5,6,7-tetrahydro-1H-indazol-5-yl)-(8-phenyl-[1,2,4]triazolo[1,5-a]pyridine-2-yl)-amine] |
| 40 to 80% | 62% | < 40% | 30% | < 40% | 21% | < 40% | 24% |  |  |  |  | CCn1ncc2c1CCC(Nc1nc3c(-c4ccc(OC)nc4)cccn3n1)C2 (stereo not shown) [Example 71, (1-Ethyl-4,5,6,7-tetrahydro-1H-indazol-5-yl)-[8-(6-methoxy-pyridin-3-yl)-[1,2,4]triazolo[1,5-a]pyridine-2-yl]-amine] |
| 40 to 80% | 48% | < 40% | 13% | < 40% | 20% | < 40% | 13% |  |  |  |  | CCn1ncc2c1CCC(Nc1nc3c(-c4cccnc4)cccn3n1)C2 (stereo not shown) [Example 63, (1-Ethyl-4,5,6,7-tetrahydro-1H-indazol-5-yl)-(8-pyridin-3-yl-[1,2,4]triazolo[1,5-a]pyridine-2-yl)-amine] |
| < 40% | 34% | < 40% | 8% | < 40% | 16% | < 40% | 27% |  |  |  |  | CCn1ncc2c1CCC(Nc1nc3c(-c4ccc(F)cc4)cccn3n1)C2 (stereo not shown) [Example 55, (1-Ethyl-4,5,6,7-tetrahydro-1H-indazol-5-yl)-[8-(4-fluoro-phenyl)-[1,2,4]triazolo[1,5-a]pyridine-2-yl]-amine] |
| < 40% | 31% | < 40% | 28% | < 40% | 18% | < 40% | 26% |  |  |  |  | CCn1ncc2c1CC[C@@H](Nc1nc3c(-c4ccc(F)cc4C)cccn3n1)C2 [Example R-42, (R)-(1-Ethyl-4,5,6,7-tetrahydro-1H-indazol-5-yl)-[8-(4-fluoro-2-methyl-phenyl)-[1,2,4]triazolo[1,5-a]pyridine-2-yl]-amine] |
| 40 to 80% | 58% | < 40% | 15% | < 40% | 21% | < 40% | 19% |  |  |  |  | CCn1ncc2c1CCC(Nc1nc3c(-c4ccccc4C)cccn3n1)C2 (stereo not shown) [Example 56, (1-Ethyl-4,5,6,7-tetrahydro-1H-indazol-5-yl)-[8-(2-methyl-phenyl)-[1,2,4]triazolo[1,5-a]pyridine-2-yl]-amine] |

The remaining lines, values behind:

| Compound | inhibition at 10 µM [1, 5] | inhibition at 10 µM [1, 6] | inhibition at 10 µM [2, 7] | inhibition at 10 µM [2, 8] | inhibition at 10 µM [3, 9] | inhibition at 10 µM [3, 10] | inhibition at 10 µM [4, 11] | inhibition at 10 µM [4, 12] | inhibition at 10 µM ([1]; read-out: % Inhibition mean) | inhibition at 10 µM ([2]; read-out: % Inhibition mean) | inhibition at 10 µM ([3]; read-out: % Inhibition mean) | inhibition at 10 µM ([4]; read-out: % Inhibition mean) |
| --- | --- | --- | --- | --- | --- | --- | --- | --- | --- | --- | --- | --- |
| Cc1cc(F)ccc1-c1cccn2nc(Nc3ccc4c(cnn4C)c3)nc12 [Example 9, [8-(4-fluoro-2-methyl-phenyl)-[1,2,4]triazolo[1,5-a]pyridine-2-yl]-(1-methyl-1H-indazol-5-yl)-amine] | > 80% | 82% | < 40% | 7% | 40 to 80% | 59% | < 40% | 18% |  |  |  |  |
| CCn1nc(Cl)c2c1CCC(Nc1nc3c(-c4ccc(F)cc4C)cccn3n1)C2 (stereo not shown) [Example 48, (3-Chloro-1-ethyl-4,5,6,7-tetrahydro-1H-indazol-5-yl)-[8-(4-fluoro-2-methyl-phenyl)-[1,2,4]triazolo[1,5-a]pyridine-2-yl]-amine] | < 40% | 15% | < 40% | 24% | < 40% | 19% | < 40% | 22% |  |  |  |  |
| CCCCn1ncc2c1CCC(Nc1nc3c(-c4ccc(F)cc4C)cccn3n1)C2 (stereo not shown) [Example 46, [8-(4-fluoro-2-methyl-phenyl)-[1,2,4]triazolo[1,5-a]pyridine-2-yl]-(1-butyl-4,5,6,7-tetrahydro-1H-indazol-5-yl)-amine] | < 40% | 24% | < 40% | 24% | < 40% | 25% | < 40% | 23% |  |  |  |  |
| CC1(C)NC(=O)c2ccc(Nc3nc4c(-c5cccc(F)c5)cccn4n3)cc21 [Cpd. 302 in WO09155551, reference compound] | > 80% |  | > 80% |  | > 80% |  | > 80% |  | 95% | 86% | 89% | 97% |
| CCCCCn1ncc2c1CCC(Nc1nc3c(-c4ccc(F)cc4C)cccn3n1)C2 (stereo not shown) [Example 47, [8-(4-fluoro-2-methyl-phenyl)-[1,2,4]triazolo[1,5-a]pyridine-2-yl]-(1-pentyl-4,5,6,7-tetrahydro-1H-indazol-5-yl)-amine] | < 40% | 15% | < 40% | 19% | < 40% | 10% | < 40% | 21% |  |  |  |  |
